From US20260191968A1, “PROTAC DEGRADERS OF MLLT1 AND/OR MLLT3” (DARK BLUE THERAPEUTICS LTD, priority 2024, published 2026)

Biological target: T1, MLLT1 (Homo sapiens, UniProt Q03111)
T1 construct: host or cells: MV4-11
T1 sequence (Q03111 1-559): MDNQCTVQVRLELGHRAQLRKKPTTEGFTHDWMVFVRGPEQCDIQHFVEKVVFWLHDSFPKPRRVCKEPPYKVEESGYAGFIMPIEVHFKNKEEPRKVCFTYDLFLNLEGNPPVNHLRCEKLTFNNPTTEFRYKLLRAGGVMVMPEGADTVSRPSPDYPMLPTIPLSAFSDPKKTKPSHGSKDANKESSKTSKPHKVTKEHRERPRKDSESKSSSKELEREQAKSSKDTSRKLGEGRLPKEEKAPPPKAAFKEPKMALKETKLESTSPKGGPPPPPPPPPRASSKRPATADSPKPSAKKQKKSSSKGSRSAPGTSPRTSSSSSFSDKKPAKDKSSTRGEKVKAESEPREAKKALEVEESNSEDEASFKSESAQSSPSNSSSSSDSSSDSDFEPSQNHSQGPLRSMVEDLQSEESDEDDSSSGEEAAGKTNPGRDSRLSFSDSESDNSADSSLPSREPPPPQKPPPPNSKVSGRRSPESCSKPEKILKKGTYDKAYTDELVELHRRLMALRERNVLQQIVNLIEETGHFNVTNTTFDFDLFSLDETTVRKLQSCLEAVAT
Experiment: MLLT1 degradation assay in MV4-11 cells (JESS chemiluminescent detection), three concentrations, 24 h
Format: cell-based
Conditions: with respect to DMSO control
Outline: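 MV4-11 cells treated 24 h at 37° C, 5% CO2 with 1000, 100 and 10 nM compound (0.1% DMSO final). MLLT1 quantified by automated capillary chemiluminescent immunodetection; band peak area expressed as % degradation relative to DMSO control.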

| Compound | MLLT1% Degradation @ 0.01 μM | MLLT1% Degradation @ 0.1 μM | MLLT1% Degradation @ 1 μM |
| --- | --- | --- | --- |
| CN1CCC[C@@H]1c1cc2cnc(NC(=O)c3ccc(OC4CCN(CC5CCN(c6cccc7c6CN(C6CCC(=O)NC6=O)C7=O)CC5)CC4)cc3)cc2[nH]1 (stereo in doubt) [Example 123, 4-((1-((1-(2-((rel-R)-2,6-dioxopiperidin-3-yl)-1-oxoisoindolin-4-yl)piperidin-4-yl)methyl)piperidin-4-yl)oxy)-N-(2-((R)-1-methylpyrrolidin-2-yl)-1H-pyrrolo[3,2-c]pyridin-6-yl)benzamide] | A (Category A: A ≥ 75% degradation) | A (Category A: A ≥ 75% degradation) | A (Category A: A ≥ 75% degradation) |
| CN1CCC[C@@H]1c1cc2cnc(NC(=O)c3ccc(CCCC4CCN(c5cccc6c5CN(C5CCC(=O)NC5=O)C6=O)CC4)cc3)cc2[nH]1 (stereo in doubt) [Example 78, 4-(3-(1-(2-((rel-R)-2,6-dioxopiperidin-3-yl)-1-oxoisoindolin-4-yl)piperidin-4-yl)propyl)-N-(2-((R)-1-methylpyrrolidin-2-yl)-1H-pyrrolo[3,2-c]pyridin-6-yl)benzamide] | B (Category B: 50% ≤ B < 75% degradation) | A (Category A: A ≥ 75% degradation) | A (Category A: A ≥ 75% degradation) |
| CN1CCC[C@@H]1c1cc2cnc(NC(=O)c3ccc(C4CCN(c5cccc6c5C(=O)N(C5CCC(=O)NC5=O)C6=O)CC4)cc3)cc2[nH]1 (stereo partly drawn) [Example 15, 4-(1-(2-(2,6-dioxopiperidin-3-yl)-1,3-dioxoisoindolin-4-yl)piperidin-4-yl)-N-(2-((R)-1-methylpyrrolidin-2-yl)-1H-pyrrolo[3,2-c]pyridin-6-yl)benzamide] | B (Category B: 50% ≤ B < 75% degradation) | A (Category A: A ≥ 75% degradation) | B (Category B: 50% ≤ B < 75% degradation) |
| CN1CCC[C@@H]1c1cc2cnc(NC(=O)c3ccc(N4CC[C@@H](CC#Cc5cccc6c5CN(C5CCC(=O)NC5=O)C6=O)C4)nc3)cc2[nH]1 (stereo partly drawn) [Example 226, 6-((3R)-3-(3-(2-(2,6-dioxopiperidin-3-yl)-1-oxoisoindolin-4-yl)prop-2-yn-1-yl)pyrrolidin-1-yl)-N-(2-((R)-1-methylpyrrolidin-2-yl)-1H-pyrrolo[3,2-c]pyridin-6-yl)nicotinamide] | B (Category B: 50% ≤ B < 75% degradation) | B (Category B: 50% ≤ B < 75% degradation) | C (Category C: 25% ≤ C < 50% degradation) |
| CN1CCC[C@@H]1c1cc2cnc(NC(=O)c3ccc(OCCC4CCN(c5cccc6c5C(=O)N(C5CCC(=O)NC5=O)C6=O)CC4)nc3)cc2[nH]1 (stereo partly drawn) [Example 179, 6-(2-(1-(2-(2,6-dioxopiperidin-3-yl)-1,3-dioxoisoindolin-4-yl)piperidin-4-yl)ethoxy)-N-(2-((R)-1-methylpyrrolidin-2-yl)-1H-pyrrolo[3,2-c]pyridin-6-yl)nicotinamide] | B (Category B: 50% ≤ B < 75% degradation) | B (Category B: 50% ≤ B < 75% degradation) | B (Category B: 50% ≤ B < 75% degradation) |
| CN1CCC[C@@H]1c1cc2cnc(NC(=O)c3ccc(CCCCC#Cc4ccc5c(c4)CN(C4CCC(=O)NC4=O)C5=O)cc3F)cc2[nH]1 (stereo partly drawn) [Example 223, 4-(6-(2-(2,6-dioxopiperidin-3-yl)-1-oxoisoindolin-5-yl)hex-5-yn-1-yl)-2-fluoro-N-(2-((R)-1-methylpyrrolidin-2-yl)-1H-pyrrolo[3,2-c]pyridin-6-yl)benzamide] | D (Category D: D < 25% degradation) | C (Category C: 25% ≤ C < 50% degradation) | D (Category D: D < 25% degradation) |
